Experimental data taken from US10765114B2, “4-amino-6-(pyridyl and 2-substitutedphenyl)-picolinates and 6-amino-2-(pyridyl and 2-substitutedphenyl)-pyrimidine-4-carboxylates and their use as herbicides” (Dow AgroSciences LLC, priority 2013, dated 2020).

System: not given
Test: not given
Details: not given

melting point [°C] | SMILES
164 to 165 | COC(=O)c1nc(-c2ccc(OC)nc2Cl)c(F)c(N)c1Cl [Compound 88, methyl 4-amino-2′,5-dichloro-3-fluoro-6′-methoxy-[2,3′-bipyridine]-6-carboxylate]

System: Key Grass and Sedge Weeds as well as Grass Crops
Test: Post-Emergent Test II (Table 6)
Format: in vivo
Details: post-emergence, 336 h, CYPSS, 70 g ai/ha, 14 days after application, read-out: Visual Growth Reduction (%) 14 Days After Application CYPSS
Summary of the method: (§1)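 Growth stage at treatment: first or second true leaf. Application: compound in acetone/DMSO diluted into an adjuvant-containing aqueous mix, sprayed at 187 L/ha at several rates. Assessment: visual 0-100% injury at 14 days against untreated plants.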

SMILES | pest or weed control at 70 g/ha [%]
COC(=O)c1nc(-c2ccc(OC)nc2Cl)c(F)c(N)c1Cl [Compound 88, methyl 4-amino-2′,5-dichloro-3-fluoro-6′-methoxy-[2,3′-bipyridine]-6-carboxylate] | 0 to 29

Same assay, conditions: post-emergence, 336 h, CYPSS, 140 g ai/ha, 14 days after application, read-out: Visual Growth Reduction (%) 14 Days After Application CYPSS

SMILES | pest or weed control at 140 g/ha [%]
COC(=O)c1nc(-c2ccc(OC)nc2Cl)c(F)c(N)c1Cl [Compound 88, methyl 4-amino-2′,5-dichloro-3-fluoro-6′-methoxy-[2,3′-bipyridine]-6-carboxylate] | 0 to 29

Same assay, conditions: post-emergence, 336 h, DIGSA: crabgrass (Digitaria sanguinalis), 70 g ai/ha, 14 days after application, read-out: Visual Growth Reduction (%) 14 Days After Application DIGSA

SMILES | pest or weed control at 70 g/ha [%]
COC(=O)c1nc(-c2ccc(OC)nc2Cl)c(F)c(N)c1Cl [Compound 88, methyl 4-amino-2′,5-dichloro-3-fluoro-6′-methoxy-[2,3′-bipyridine]-6-carboxylate] | 0 to 29

Same assay, conditions: post-emergence, 336 h, DIGSA: crabgrass (Digitaria sanguinalis), 140 g ai/ha, 14 days after application, read-out: Visual Growth Reduction (%) 14 Days After Application DIGSA

SMILES | pest or weed control at 140 g/ha [%]
COC(=O)c1nc(-c2ccc(OC)nc2Cl)c(F)c(N)c1Cl [Compound 88, methyl 4-amino-2′,5-dichloro-3-fluoro-6′-methoxy-[2,3′-bipyridine]-6-carboxylate] | 0 to 29

Same assay, conditions: post-emergence, 336 h, ECHSS, 70 g ai/ha, 14 days after application, read-out: Visual Growth Reduction (%) 14 Days After Application ECHSS

SMILES | pest or weed control at 70 g/ha [%]
COC(=O)c1nc(-c2ccc(OC)nc2Cl)c(F)c(N)c1Cl [Compound 88, methyl 4-amino-2′,5-dichloro-3-fluoro-6′-methoxy-[2,3′-bipyridine]-6-carboxylate] | 0 to 29

Same assay, conditions: post-emergence, 336 h, ECHSS, 140 g ai/ha, 14 days after application, read-out: Visual Growth Reduction (%) 14 Days After Application ECHSS

SMILES | pest or weed control at 140 g/ha [%]
COC(=O)c1nc(-c2ccc(OC)nc2Cl)c(F)c(N)c1Cl [Compound 88, methyl 4-amino-2′,5-dichloro-3-fluoro-6′-methoxy-[2,3′-bipyridine]-6-carboxylate] | 0 to 29

Same assay, conditions: post-emergence, 336 h, ORYSS (crop), 70 g ai/ha, 14 days after application, read-out: Visual Growth Reduction (%) 14 Days After Application ORYSS

SMILES | pest or weed control at 70 g/ha [%]
COC(=O)c1nc(-c2ccc(OC)nc2Cl)c(F)c(N)c1Cl [Compound 88, methyl 4-amino-2′,5-dichloro-3-fluoro-6′-methoxy-[2,3′-bipyridine]-6-carboxylate] | 0 to 29

Same assay, conditions: post-emergence, 336 h, ORYSS (crop), 140 g ai/ha, 14 days after application, read-out: Visual Growth Reduction (%) 14 Days After Application ORYSS

SMILES | pest or weed control at 140 g/ha [%]
COC(=O)c1nc(-c2ccc(OC)nc2Cl)c(F)c(N)c1Cl [Compound 88, methyl 4-amino-2′,5-dichloro-3-fluoro-6′-methoxy-[2,3′-bipyridine]-6-carboxylate] | 0 to 29

Same assay, conditions: post-emergence, 336 h, SETFA: giant foxtail (Setaria faberi), 70 g ai/ha, 14 days after application, read-out: Visual Growth Reduction (%) 14 Days After Application SETFA

SMILES | pest or weed control at 70 g/ha [%]
COC(=O)c1nc(-c2ccc(OC)nc2Cl)c(F)c(N)c1Cl [Compound 88, methyl 4-amino-2′,5-dichloro-3-fluoro-6′-methoxy-[2,3′-bipyridine]-6-carboxylate] | 0 to 29

Same assay, conditions: post-emergence, 336 h, SETFA: giant foxtail (Setaria faberi), 140 g ai/ha, 14 days after application, read-out: Visual Growth Reduction (%) 14 Days After Application SETFA

SMILES | pest or weed control at 140 g/ha [%]
COC(=O)c1nc(-c2ccc(OC)nc2Cl)c(F)c(N)c1Cl [Compound 88, methyl 4-amino-2′,5-dichloro-3-fluoro-6′-methoxy-[2,3′-bipyridine]-6-carboxylate] | 45 to 59

Same assay, conditions: post-emergence, 336 h, SORVU: grain sorghum (Sorghum vulgare), 70 g ai/ha, 14 days after application, read-out: Visual Growth Reduction (%) 14 Days After Application SORVU

SMILES | pest or weed control at 70 g/ha [%]
COC(=O)c1nc(-c2ccc(OC)nc2Cl)c(F)c(N)c1Cl [Compound 88, methyl 4-amino-2′,5-dichloro-3-fluoro-6′-methoxy-[2,3′-bipyridine]-6-carboxylate] | 0 to 29

Same assay, conditions: post-emergence, 336 h, SORVU: grain sorghum (Sorghum vulgare), 140 g ai/ha, 14 days after application, read-out: Visual Growth Reduction (%) 14 Days After Application SORVU

SMILES | pest or weed control at 140 g/ha [%]
COC(=O)c1nc(-c2ccc(OC)nc2Cl)c(F)c(N)c1Cl [Compound 88, methyl 4-amino-2′,5-dichloro-3-fluoro-6′-methoxy-[2,3′-bipyridine]-6-carboxylate] | 0 to 29

Same assay, conditions: post-emergence, 336 h, TRZSS (crop), 70 g ai/ha, 14 days after application, read-out: Visual Growth Reduction (%) 14 Days After Application TRZSS

SMILES | pest or weed control at 70 g/ha [%]
COC(=O)c1nc(-c2ccc(OC)nc2Cl)c(F)c(N)c1Cl [Compound 88, methyl 4-amino-2′,5-dichloro-3-fluoro-6′-methoxy-[2,3′-bipyridine]-6-carboxylate] | 0 to 29

Same assay, conditions: post-emergence, 336 h, TRZSS (crop), 140 g ai/ha, 14 days after application, read-out: Visual Growth Reduction (%) 14 Days After Application TRZSS

SMILES | pest or weed control at 140 g/ha [%]
COC(=O)c1nc(-c2ccc(OC)nc2Cl)c(F)c(N)c1Cl [Compound 88, methyl 4-amino-2′,5-dichloro-3-fluoro-6′-methoxy-[2,3′-bipyridine]-6-carboxylate] | 0 to 29

Same assay, conditions: post-emergence, 336 h, ZEAMX: maize, corn (Zea mays), 70 g ai/ha, 14 days after application, read-out: Visual Growth Reduction (%) 14 Days After Application ZEAMX

SMILES | pest or weed control at 70 g/ha [%]
COC(=O)c1nc(-c2ccc(OC)nc2Cl)c(F)c(N)c1Cl [Compound 88, methyl 4-amino-2′,5-dichloro-3-fluoro-6′-methoxy-[2,3′-bipyridine]-6-carboxylate] | 0 to 29

Same assay, conditions: post-emergence, 336 h, ZEAMX: maize, corn (Zea mays), 140 g ai/ha, 14 days after application, read-out: Visual Growth Reduction (%) 14 Days After Application ZEAMX

SMILES | pest or weed control at 140 g/ha [%]
COC(=O)c1nc(-c2ccc(OC)nc2Cl)c(F)c(N)c1Cl [Compound 88, methyl 4-amino-2′,5-dichloro-3-fluoro-6′-methoxy-[2,3′-bipyridine]-6-carboxylate] | 0 to 29

System: Key Broadleaf Weed and Crop Species
Test: Post-Emergent Test II (Table 5)
Format: in vivo
Details: Abutilon theophrasti, post-emergence, 336 h, ABUTH: velvetleaf (Abutilon theophrasti), application rate 70 (kg ai/ha; footnote: g ai/ha), read-out: Visual Growth Reduction (%) 14 Days After Application ABUTH
Summary of the method: as §1

SMILES | pest or weed control at 70 g/ha [%]
COC(=O)c1nc(-c2ccc(OC)nc2Cl)c(F)c(N)c1Cl [Compound 88, methyl 4-amino-2′,5-dichloro-3-fluoro-6′-methoxy-[2,3′-bipyridine]-6-carboxylate] | 75 to 84

Same assay, conditions: Abutilon theophrasti, post-emergence, 336 h, ABUTH: velvetleaf (Abutilon theophrasti), application rate 140 (kg ai/ha; footnote: g ai/ha), read-out: Visual Growth Reduction (%) 14 Days After Application ABUTH

SMILES | pest or weed control at 140 g/ha [%]
COC(=O)c1nc(-c2ccc(OC)nc2Cl)c(F)c(N)c1Cl [Compound 88, methyl 4-amino-2′,5-dichloro-3-fluoro-6′-methoxy-[2,3′-bipyridine]-6-carboxylate] | 95 to 100

Same assay, conditions: Amaranthus retroflexus, post-emergence, 336 h, AMARE: redroot pigweed (Amaranthus retroflexus), application rate 70 (kg ai/ha; footnote: g ai/ha), read-out: Visual Growth Reduction (%) 14 Days After Application AMARE

SMILES | pest or weed control at 70 g/ha [%]
COC(=O)c1nc(-c2ccc(OC)nc2Cl)c(F)c(N)c1Cl [Compound 88, methyl 4-amino-2′,5-dichloro-3-fluoro-6′-methoxy-[2,3′-bipyridine]-6-carboxylate] | 85 to 94

Same assay, conditions: Brassica napus, post-emergence, 336 h, BRSSS: oilseed rape, canola (Brassica napus), application rate 70 (kg ai/ha; footnote: g ai/ha), read-out: Visual Growth Reduction (%) 14 Days After Application BRSSS

SMILES | pest or weed control at 70 g/ha [%]
COC(=O)c1nc(-c2ccc(OC)nc2Cl)c(F)c(N)c1Cl [Compound 88, methyl 4-amino-2′,5-dichloro-3-fluoro-6′-methoxy-[2,3′-bipyridine]-6-carboxylate] | 85 to 94

Same assay, conditions: Brassica napus, post-emergence, 336 h, BRSSS: oilseed rape, canola (Brassica napus), application rate 140 (kg ai/ha; footnote: g ai/ha), read-out: Visual Growth Reduction (%) 14 Days After Application BRSSS

SMILES | pest or weed control at 140 g/ha [%]
COC(=O)c1nc(-c2ccc(OC)nc2Cl)c(F)c(N)c1Cl [Compound 88, methyl 4-amino-2′,5-dichloro-3-fluoro-6′-methoxy-[2,3′-bipyridine]-6-carboxylate] | 85 to 94

Same assay, conditions: Chenopodium album, post-emergence, 336 h, CHEAL: lambsquarters (Chenopodium album), application rate 70 (kg ai/ha; footnote: g ai/ha), read-out: Visual Growth Reduction (%) 14 Days After Application CHEAL

SMILES | pest or weed control at 70 g/ha [%]
COC(=O)c1nc(-c2ccc(OC)nc2Cl)c(F)c(N)c1Cl [Compound 88, methyl 4-amino-2′,5-dichloro-3-fluoro-6′-methoxy-[2,3′-bipyridine]-6-carboxylate] | 95 to 100

Same assay, conditions: Chenopodium album, post-emergence, 336 h, CHEAL: lambsquarters (Chenopodium album), application rate 140 (kg ai/ha; footnote: g ai/ha), read-out: Visual Growth Reduction (%) 14 Days After Application CHEAL

SMILES | pest or weed control at 140 g/ha [%]
COC(=O)c1nc(-c2ccc(OC)nc2Cl)c(F)c(N)c1Cl [Compound 88, methyl 4-amino-2′,5-dichloro-3-fluoro-6′-methoxy-[2,3′-bipyridine]-6-carboxylate] | 95 to 100

Same assay, conditions: Euphorbia heterophylla, post-emergence, 336 h, EPHHL: wild poinsettia (Euphorbia heterophylla), application rate 70 (kg ai/ha; footnote: g ai/ha), read-out: Visual Growth Reduction (%) 14 Days After Application EPHHL

SMILES | pest or weed control at 70 g/ha [%]
COC(=O)c1nc(-c2ccc(OC)nc2Cl)c(F)c(N)c1Cl [Compound 88, methyl 4-amino-2′,5-dichloro-3-fluoro-6′-methoxy-[2,3′-bipyridine]-6-carboxylate] | 0 to 29

Same assay, conditions: Euphorbia heterophylla, post-emergence, 336 h, EPHHL: wild poinsettia (Euphorbia heterophylla), application rate 140 (kg ai/ha; footnote: g ai/ha), read-out: Visual Growth Reduction (%) 14 Days After Application EPHHL

SMILES | pest or weed control at 140 g/ha [%]
COC(=O)c1nc(-c2ccc(OC)nc2Cl)c(F)c(N)c1Cl [Compound 88, methyl 4-amino-2′,5-dichloro-3-fluoro-6′-methoxy-[2,3′-bipyridine]-6-carboxylate] | 0 to 29

Same assay, conditions: Helianthus annuus, post-emergence, 336 h, HELAN: sunflower (Helianthus annuus), application rate 70 (kg ai/ha; footnote: g ai/ha), read-out: Visual Growth Reduction (%) 14 Days After Application HELAN

SMILES | pest or weed control at 70 g/ha [%]
COC(=O)c1nc(-c2ccc(OC)nc2Cl)c(F)c(N)c1Cl [Compound 88, methyl 4-amino-2′,5-dichloro-3-fluoro-6′-methoxy-[2,3′-bipyridine]-6-carboxylate] | 75 to 84

Same assay, conditions: Helianthus annuus, post-emergence, 336 h, HELAN: sunflower (Helianthus annuus), application rate 140 (kg ai/ha; footnote: g ai/ha), read-out: Visual Growth Reduction (%) 14 Days After Application HELAN

SMILES | pest or weed control at 140 g/ha [%]
COC(=O)c1nc(-c2ccc(OC)nc2Cl)c(F)c(N)c1Cl [Compound 88, methyl 4-amino-2′,5-dichloro-3-fluoro-6′-methoxy-[2,3′-bipyridine]-6-carboxylate] | 85 to 94

Same assay, conditions: Viola tricolor, post-emergence, 336 h, VIOTR: wild pansy (Viola tricolor), application rate 70 (kg ai/ha; footnote: g ai/ha), read-out: Visual Growth Reduction (%) 14 Days After Application VIOTR

SMILES | pest or weed control at 70 g/ha [%]
COC(=O)c1nc(-c2ccc(OC)nc2Cl)c(F)c(N)c1Cl [Compound 88, methyl 4-amino-2′,5-dichloro-3-fluoro-6′-methoxy-[2,3′-bipyridine]-6-carboxylate] | 0 to 29

Same assay, conditions: Viola tricolor, post-emergence, 336 h, VIOTR: wild pansy (Viola tricolor), application rate 140 (kg ai/ha; footnote: g ai/ha), read-out: Visual Growth Reduction (%) 14 Days After Application VIOTR

SMILES | pest or weed control at 140 g/ha [%]
COC(=O)c1nc(-c2ccc(OC)nc2Cl)c(F)c(N)c1Cl [Compound 88, methyl 4-amino-2′,5-dichloro-3-fluoro-6′-methoxy-[2,3′-bipyridine]-6-carboxylate] | 0 to 29
